Experimental data taken from ChEMBL document CHEMBL1201862, “PubChem BioAssay data set” (2004).
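Dose response: 5 concentrations. Exposure: 48 h. Format: 96-well plates. Endpoint: linear interpolation; highest concentration if not reached. GI50 marks 50% less growth.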 Activity calls are given as the source filed them. Rule as the data show it: active = GI50 up to about 1.1 µM and inactive = higher.

How the values were obtained:
Test in all cases: NCI anticancer screen, dose series, 48 h
COLO 205 = test system: COLO 205
DU-145 = test system: DU-145
HCT-116 = test system: HCT-116
HOP-62 = test system: HOP-62
HOP-92 = test system: HOP-92
Hs-578T = test system: Hs-578T
IGROV-1 = test system: IGROV-1
MDA-MB-435 = test system: MDA-MB-435
Malme-3M = test system: Malme-3M
NCI-H226 = test system: NCI-H226
NCI-H23 = test system: NCI-H23
NCI-H460 = test system: NCI-H460
NCI-H522 = test system: NCI-H522
OVCAR-3 = test system: OVCAR-3
PC-3 = test system: PC-3
RPMI-8226 = test system: RPMI-8226
RXF 393 = test system: RXF 393
SK-MEL-28 = test system: SK-MEL-28
SK-MEL-5 = test system: SK-MEL-5
U-251 = test system: U-251

Measured: GI50

C=CC(CBr)CCC(Br)C(C)(C)Br (stereo not drawn)
inactive: COLO 205 > 10 µM | DU-145 > 10 µM | HCT-116 > 10 µM | HOP-62 > 10 µM | HOP-92 > 10 µM | Hs-578T > 10 µM | IGROV-1 > 10 µM | MDA-MB-435 > 10 µM | Malme-3M > 10 µM | NCI-H226 > 10 µM | NCI-H23 > 10 µM | NCI-H460 > 10 µM | NCI-H522 > 10 µM | OVCAR-3 > 10 µM | PC-3 > 10 µM | RPMI-8226 > 10 µM | RXF 393 > 10 µM | SK-MEL-28 > 10 µM | SK-MEL-5 > 10 µM | U-251 > 10 µM

CCOC(=O)C1(C(C)=O)OC(=O)c2cnccc21 (stereo not drawn)
inactive: COLO 205 > 100 µM | DU-145 > 100 µM | HCT-116 > 100 µM | HOP-92 > 100 µM | Hs-578T > 100 µM | IGROV-1 > 100 µM | MDA-MB-435 > 100 µM | Malme-3M > 100 µM | NCI-H226 > 100 µM | NCI-H23 > 100 µM | NCI-H460 > 100 µM | NCI-H522 > 100 µM | OVCAR-3 > 100 µM | PC-3 > 100 µM | RPMI-8226 > 100 µM | RXF 393 > 100 µM | SK-MEL-28 > 100 µM | SK-MEL-5 > 100 µM | U-251 > 100 µM

COC(=O)CCC(=O)NC1=C(Nc2ccccc2)C(=O)c2ccccc2C1=O
inactive: COLO 205 16.7 µM | DU-145 10.8 µM | HCT-116 9.71 µM | HOP-62 17.8 µM | HOP-92 15 µM | Hs-578T 7.18 µM | IGROV-1 11.5 µM | MDA-MB-435 1.97 µM | Malme-3M 2.55 µM | NCI-H226 14.6 µM | NCI-H23 4.28 µM | NCI-H460 15.3 µM | NCI-H522 14.8 µM | OVCAR-3 2.94 µM | PC-3 12.4 µM | RPMI-8226 13.2 µM | RXF 393 8.81 µM | SK-MEL-28 8.51 µM | SK-MEL-5 1.83 µM | U-251 11.7 µM

CCC1(CC)CC(=NNS(=O)(=O)c2ccc(C)cc2)C1
inactive: COLO 205 > 100 µM | DU-145 > 100 µM | HCT-116 > 100 µM | HOP-92 > 100 µM | Hs-578T > 100 µM | IGROV-1 > 100 µM | MDA-MB-435 > 100 µM | Malme-3M > 100 µM | NCI-H226 > 100 µM | NCI-H23 > 100 µM | NCI-H460 > 100 µM | NCI-H522 > 100 µM | OVCAR-3 > 100 µM | PC-3 > 100 µM | RXF 393 > 100 µM | SK-MEL-28 > 100 µM | SK-MEL-5 > 100 µM | U-251 > 100 µM

COc1cc(S(=O)(=O)Nc2ccc(-c3csc(/N=C\c4cccc(Oc5ccccc5)c4)n3)cc2)ccc1Cl
inactive: COLO 205 34.7 µM | DU-145 25.5 µM | HCT-116 14.6 µM | HOP-62 44.9 µM | HOP-92 20.1 µM | Hs-578T 60.4 µM | IGROV-1 28.8 µM | MDA-MB-435 30.8 µM | Malme-3M 47.8 µM | NCI-H226 47.5 µM | NCI-H23 45.9 µM | NCI-H522 26.1 µM | OVCAR-3 31.9 µM | PC-3 36.7 µM | RPMI-8226 21.6 µM | RXF 393 20.1 µM | SK-MEL-28 36.1 µM | SK-MEL-5 27.9 µM

C1=N\CCNCC/N=C/c2ccccc2OCc2cccc(n2)COc2ccccc2/1
inactive: COLO 205 > 56.8 µM | DU-145 26.3 µM | HCT-116 3.57 µM | HOP-62 12.4 µM | HOP-92 26.1 µM | Hs-578T 9.51 µM | IGROV-1 24.5 µM | MDA-MB-435 3.86 µM | Malme-3M 11.8 µM | NCI-H226 26.3 µM | NCI-H23 12.9 µM | NCI-H460 33.1 µM | NCI-H522 27.5 µM | OVCAR-3 23.8 µM | PC-3 19.2 µM | RPMI-8226 3.77 µM | RXF 393 27.9 µM | SK-MEL-28 7.85 µM | SK-MEL-5 12.6 µM | U-251 6.32 µM

CC(=S)NC=C(C(N)=O)C(N)=O
inactive: COLO 205 > 100 µM | DU-145 > 100 µM | HCT-116 > 100 µM | HOP-62 > 100 µM | HOP-92 3.26 µM | Hs-578T > 100 µM | IGROV-1 > 100 µM | MDA-MB-435 > 100 µM | Malme-3M > 100 µM | NCI-H226 > 100 µM | NCI-H23 > 100 µM | NCI-H522 > 100 µM | OVCAR-3 > 100 µM | PC-3 > 100 µM | RPMI-8226 > 100 µM | RXF 393 > 100 µM | SK-MEL-28 > 100 µM | SK-MEL-5 > 100 µM | U-251 > 100 µM

COc1cc2c(c(O)c1O)C(=O)C1CCC(=O)N1C2c1cccc2ccccc12 (stereo not drawn)
inactive: COLO 205 > 50 µM | DU-145 > 50 µM | HCT-116 > 50 µM | HOP-62 > 50 µM | HOP-92 > 50 µM | Hs-578T > 50 µM | IGROV-1 > 50 µM | MDA-MB-435 > 50 µM | NCI-H226 > 50 µM | NCI-H23 > 50 µM | NCI-H460 > 50 µM | NCI-H522 > 50 µM | OVCAR-3 > 50 µM | PC-3 > 50 µM | RPMI-8226 > 50 µM | RXF 393 6.28 µM | SK-MEL-28 > 50 µM | U-251 > 50 µM

O=S1(=O)N=C(NCc2c[nH]c3ccccc23)N(c2ccccc2)c2ccncc21
inactive: COLO 205 > 100 µM | DU-145 > 100 µM | HCT-116 > 100 µM | HOP-62 30 µM | HOP-92 22.6 µM | Hs-578T 31.7 µM | MDA-MB-435 > 100 µM | Malme-3M > 100 µM | NCI-H226 60.3 µM | NCI-H23 > 100 µM | NCI-H460 > 100 µM | NCI-H522 25.1 µM | OVCAR-3 > 100 µM | PC-3 > 100 µM | RXF 393 > 100 µM | SK-MEL-28 > 100 µM | SK-MEL-5 > 100 µM | U-251 49.4 µM

Nc1nc(Cl)cc(OCC2(CO)CC=CC2)n1
inactive: DU-145 > 100 µM | HCT-116 > 100 µM | HOP-62 > 100 µM | HOP-92 > 100 µM | Hs-578T > 100 µM | IGROV-1 > 100 µM | MDA-MB-435 > 100 µM | Malme-3M > 100 µM | NCI-H226 > 100 µM | NCI-H23 > 100 µM | NCI-H460 > 100 µM | NCI-H522 > 100 µM | OVCAR-3 > 100 µM | PC-3 > 100 µM | RPMI-8226 > 100 µM | RXF 393 > 100 µM | SK-MEL-28 > 100 µM | SK-MEL-5 > 100 µM | U-251 46.2 µM

N#C[BH2-][n+]1cn(C2CC(OP(=O)(O)OCC3OC(n4cnc5c(N)ncnc54)CC3O)C(CO)O2)c2nc(N)[nH]c(=O)c21 (stereo not drawn)
inactive: COLO 205 > 100 µM | DU-145 > 100 µM | HCT-116 > 100 µM | HOP-62 > 100 µM | HOP-92 > 100 µM | Hs-578T > 100 µM | IGROV-1 > 100 µM | MDA-MB-435 > 100 µM | Malme-3M > 100 µM | NCI-H226 > 100 µM | NCI-H23 > 100 µM | NCI-H460 > 100 µM | NCI-H522 > 100 µM | OVCAR-3 > 100 µM | PC-3 > 100 µM | RPMI-8226 > 100 µM | RXF 393 > 100 µM | SK-MEL-28 > 100 µM | SK-MEL-5 > 100 µM | U-251 > 100 µM

C=C1C(=O)C=C2C=C3C(=O)C(C)(C)C[C@]3(O)C12C (stereo partly drawn)
inactive: COLO 205 1.5 µM | DU-145 18.8 µM | HCT-116 3.97 µM | HOP-62 22.5 µM | HOP-92 1.59 µM | Hs-578T 8.22 µM | IGROV-1 18 µM | MDA-MB-435 12.4 µM | Malme-3M 1.83 µM | NCI-H226 22.1 µM | NCI-H23 4.81 µM | NCI-H460 18.9 µM | NCI-H522 1.61 µM | OVCAR-3 1.8 µM | PC-3 3.14 µM | RPMI-8226 1.21 µM | RXF 393 1.48 µM | SK-MEL-28 2.52 µM | SK-MEL-5 6.62 µM | U-251 17.9 µM

CC(=O)Nc1ccc(-c2nc3ccccc3s2)cc1O
inactive: COLO 205 33.8 µM | DU-145 34.8 µM | HCT-116 56.1 µM | HOP-62 32.3 µM | HOP-92 65.9 µM | Hs-578T 50.1 µM | IGROV-1 20.9 µM | MDA-MB-435 37.8 µM | NCI-H226 16.9 µM | NCI-H23 24.5 µM | NCI-H460 28.6 µM | NCI-H522 2.22 µM | OVCAR-3 94.8 µM | PC-3 51.2 µM | RPMI-8226 21 µM | RXF 393 > 100 µM | SK-MEL-28 80.5 µM | SK-MEL-5 20.4 µM | U-251 37.4 µM

COc1ccc(C(=O)c2sc(Nc3ccc(Cl)cc3)nc2N)cc1
inactive: COLO 205 > 21.2 µM | DU-145 25 µM | HCT-116 7.66 µM | HOP-62 7.91 µM | HOP-92 35.3 µM | Hs-578T 11.2 µM | IGROV-1 5.93 µM | MDA-MB-435 2.2 µM | Malme-3M 12.3 µM | NCI-H226 29.6 µM | NCI-H23 13.6 µM | NCI-H460 4.31 µM | NCI-H522 3.89 µM | OVCAR-3 8.85 µM | PC-3 12.1 µM | RPMI-8226 4.16 µM | RXF 393 14.1 µM | SK-MEL-28 29.4 µM | SK-MEL-5 18.3 µM | U-251 10.7 µM
